Reference: PMC3174355 (Journal of medicinal chemistry, 2011)

Molecular target: Rat nNOS (Rattus norvegicus, UniProt P29476)
Experiment: NOS inhibition assay, Ki for rat nNOS
Assay type: biochemical

Row | increase in nNOS potency (8a vs 1b (m-chloro for m-fluoro)) | lower potency for rat nNOS (8b vs 8a) | Structure (SMILES)
1 | 1.3 fold |  | Cc1cc(N)nc(C[C@@H]2CNC[C@@H]2OCCNCC(F)(F)c2cccc(Cl)c2)c1 [Compound 8a, 6-(((3R,4R)-4-(2-((2,2-Difluoro-2-(3-chlorophenyl)ethyl)amino)ethoxy)pyrrolidin-3-yl)methyl)-4-methylpyridin-2-amine]
2 |  | 2 fold | Cc1cc(N)nc(C[C@@H]2CNC[C@@H]2OCCNCC(F)(F)c2ccccc2Cl)c1 [Compound 8b, 6-(((3R,4R)-4-(2-((2,2-Difluoro-2-(2-chlorophenyl)ethyl)amino)ethoxy)pyrrolidin-3-yl)methyl)-4-methylpyridin-2-amine]
